Data reported in BindingDB's records for doi:10.7270/Q2HT2MVZ (Burnham Center For Chemical Genomics, 2011).

Biological target: T1, Sentrin-specific protease 8 (Homo sapiens, UniProt Q96LD8)
T1 sequence (Q96LD8 whole entry): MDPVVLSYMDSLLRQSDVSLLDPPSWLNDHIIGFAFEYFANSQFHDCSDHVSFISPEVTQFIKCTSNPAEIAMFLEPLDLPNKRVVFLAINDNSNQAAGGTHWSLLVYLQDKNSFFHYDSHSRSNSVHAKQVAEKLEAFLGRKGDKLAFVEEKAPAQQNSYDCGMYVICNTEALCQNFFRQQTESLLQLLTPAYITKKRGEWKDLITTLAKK
Assay: SENP8 protease inhibitors, SAR follow-up, biochemical, luminescence, set 2 (AID 588601)

Molecule `CCOC1=CC(=CC(C#N)c2nc(-c3ccc(C)cc3)no2)C=C(Cl)C1=O` (stereo unspecified) has an IC50 greater than 99 µM.
